Literature values in patent US20150173349A1, “Agroformulation comprising copolymer of an amide, polyalkylene glycol (meth)acrylate, and alkyl (meth)acrylate” (BASF SE, priority 2012, published 2015).
Values after ≈ are worked out from the molar mass of the structure shown.

Settings: 20° C.

Structure (SMILES): Cn1cc(C(=O)Nc2ccccc2-c2cc(F)c(F)c(F)c2)c(C(F)F)n1 [fluxapyroxad]
- solubility in water: 3.88 µg/mL (≈ 10.2 µM)
